This note sets out measurements from ChEMBL document CHEMBL1201862, “PubChem BioAssay data set” (2004).

Among the test systems are SR; IGROV-1; LOX IMVI; HCT-116; CAKI-1; SK-MEL-5; HOP-62; 786-0; RXF 393; SF-295; SNB-75; UACC-62; NCI-H522; K562; SK-OV-3; MCF7; RPMI-8226; KM12; OVCAR-4; HCT-15.
What all share (experiment): NCI-60 cell line screen, 48 h

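Method: 48-hour compound exposure of cells in 96-well plates, five concentrations, linear interpolation of endpoints. GI50: concentration for 50% inhibition of growth.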 Calls of active or inactive are those of the source. Cut-off read from the data, not from the text of the source: active = GI50 up to about 1.1 µM and inactive = higher.

As to `CS(=O)(=O)OCCCNCCCOS(C)(=O)=O`, the GI50 in the assay with SR is 148 µM (inactive); in the assay with IGROV-1, 2110 µM (inactive); with LOX IMVI, 569 µM (inactive); in the assay with HCT-116, 1440 µM (inactive); in the assay on CAKI-1, 650 µM (inactive); with SK-MEL-5 it was 1550 µM (inactive). The GI50 is 729 µM (inactive) in the assay on HOP-62; 881 µM (inactive) in the assay on 786-0; 1610 µM (inactive) in the assay with RXF 393; 526 µM (inactive) in the assay with SF-295; 1580 µM (inactive) in the assay on SNB-75; 393 µM (inactive) in the assay on UACC-62. The GI50 in the assay on NCI-H522 is 1850 µM (inactive); in the assay on K562 it was 1580 µM (inactive); with SK-OV-3, 1550 µM (inactive); in the assay with MCF7, 679 µM (inactive); in the assay with RPMI-8226 it was 1310 µM (inactive); with KM12 it was 2080 µM (inactive). In addition, the GI50 in the assay with OVCAR-4 is 2130 µM (inactive); in the assay with HCT-15 it was 1460 µM.

With `CN(C)c1cccc(/C=C(\C#N)c2ccccc2)c1`, the GI50 with SR was 0.0879 µM (active); in the assay with IGROV-1 it was 1.11 µM (active); in the assay on LOX IMVI, 0.406 µM (active); in the assay with HCT-116 it was 0.396 µM (active); in the assay with CAKI-1 it was 0.771 µM (active); with SK-MEL-5 it was 0.371 µM (active). In addition, the GI50 in the assay with HOP-62 is 0.164 µM (active); in the assay with 786-0 it was 2.21 µM (inactive); with RXF 393, 0.706 µM (active); with SF-295 it was 0.574 µM (active); with SNB-75 it was 1.39 µM (inactive); with UACC-62, 0.792 µM (active). For the same molecule, the GI50 in the assay on NCI-H522 is 0.273 µM (active); in the assay on K562, 0.0927 µM (active); in the assay with SK-OV-3, 1.11 µM (active); with MCF7, 0.218 µM (active); in the assay with RPMI-8226, 0.579 µM (active); with KM12 it was 0.1 µM (active). Besides, the GI50 in the assay on OVCAR-4 is 17.1 µM (inactive); with HCT-15, 0.219 µM.

Regarding `Clc1ccc(OCc2nnc3sc(-c4ccc(-c5ccc(Cl)cc5Cl)o4)nn23)c(Cl)c1`, the GI50 is 2.58 µM (inactive) with SR; 17.8 µM (inactive) in the assay with IGROV-1; 19.3 µM (inactive) in the assay on LOX IMVI; 15.7 µM (inactive) in the assay on HCT-116; 28.7 µM (inactive) with CAKI-1; 20.1 µM (inactive) in the assay with SK-MEL-5. The GI50 is 15.4 µM (inactive) in the assay on HOP-62; 13.3 µM (inactive) with 786-0; 14.8 µM (inactive) in the assay with RXF 393; 16.9 µM (inactive) with SF-295; 15 µM (inactive) with SNB-75; 25.7 µM (inactive) in the assay on UACC-62. The GI50 in the assay with NCI-H522 was 17.8 µM (inactive); in the assay on K562 it was 24.1 µM (inactive); in the assay on SK-OV-3, 19.1 µM (inactive); with MCF7, 31.6 µM (inactive); in the assay with RPMI-8226, 24.2 µM (inactive); in the assay on KM12, 32.6 µM (inactive). Further, the GI50 in the assay with OVCAR-4 is 35.5 µM (inactive); in the assay on HCT-15, 20.7 µM.

With `O=S(=O)(O)c1ccc2cc(/N=N\c3cc(S(=O)(=O)O)c4cccnc4c3O)ccc2c1`, the GI50 in the assay on SR, with IGROV-1, with LOX IMVI, in the assay with HCT-116, with CAKI-1 and in the assay on SK-MEL-5 was > 100 µM (inactive) each time. Moreover, the GI50 with HOP-62, with 786-0, in the assay with RXF 393, in the assay with SF-295, with SNB-75 and in the assay on UACC-62 was > 100 µM (inactive) throughout. Besides, the GI50 in the assay with NCI-H522, in the assay with K562, in the assay on SK-OV-3, with MCF7, with RPMI-8226 and with KM12 was > 100 µM (inactive) in each case. Also, the GI50 is > 100 µM (inactive) in the assay on OVCAR-4 and greater than 100 µM in the assay on HCT-15.
